Data published in US5112806A, “Antibiotic, mersacidin, a process for the preparation thereof and the use thereof as a pharmaceutical” (Hoechst Aktiengesellschaft, priority 1988, dated 1992).

What was measured:
S. aureus SG 511 [1] = test: In vivo activity against S. aureus SG 511 infection in mice; conditions: S. aureus SG 511, 1.75 × 10^9 CFU/mouse
Method: On subcutaneous administration in a dose of 9.37 and 25.00 mg/kg to laboratory mice infected experimentally with Staphylococcus aureus SG 511 and S. aureus 710 (resistant to methicillin), […].
In vivo activity of mersacidin against S. aureus SG 511
infection in mice compared with vancomycin.
Inoculation medium used: 1.75 × 10^9 CFU/mouse

S. aureus E 710 (MRSA) = test: In vivo activity against S. aureus E 710 (MRSA) in mice; conditions: S. aureus E 710 (MRSA), 5 × 10^9 CFU/mouse (1 MLD)
Method: On subcutaneous administration in a dose of 9.37 and 25.00 mg/kg to laboratory mice infected experimentally with Staphylococcus aureus SG 511 and S. aureus 710 (resistant to methicillin), […]. […]

S. aureus SG 511 [2] = test: In vivo activity against S. aureus SG 511 abscess in rats; conditions: infecting dose 2 × 10^-9 CFU in 5% mucin under the skin, 50 mg/kg × 7 days
Method: In vivo activity of mersacidin against S. aureus SG 511 abscess in rats, compared with vancomycin.
Infecting dose : […] in 5% mucin, injected under the skin.
Treatment: 50 mg/kg × 7 days

S. aureus SG 511 [3] = test: In vivo activity against S. aureus SG 511 infection in mice; conditions: mice, S. aureus SG 511, 1.75 × 10^9 CFU/mouse

CN[C@H](CC(C)C)C(=O)N[C@H]1C(=O)N[C@@H](CC(N)=O)C(=O)N[C@H]2C(=O)N[C@H]3C(=O)N[C@H](C(=O)N[C@H](C(=O)O)c4cc(O)cc(O)c4-c4cc3ccc4O)[C@H](O)c3ccc(c(Cl)c3)Oc3cc2cc(c3O[C@@H]2O[C@H](CO)[C@@H](O)[C@H](O)[C@H]2O[C@H]2C[C@](C)(N)[C@H](O)[C@H](C)O2)Oc2ccc(cc2Cl)[C@H]1O [Vancomycin, reference compound]
Number of mice treated/cured (S. aureus SG 511 [1]; 9.37 mg/kg × 3, s.c.): 48/53 | percentage rate of cure (S. aureus SG 511 [1]; 9.37 mg/kg × 3, s.c.): 85% | Approx. ED50 (S. aureus SG 511 [1]; s.c.): ~7.20 mg/kg × 3 | Approx. ED90 (S. aureus SG 511 [1]; s.c.): ~9.37 mg/kg × 3 | Number of mice treated/cured (S. aureus E 710 (MRSA); 6.25 mg/kg × 3, s.c.): 0/11 | percentage rate of cure (S. aureus E 710 (MRSA); 6.25 mg/kg × 3, s.c.): 0% | Number of mice treated/cured (S. aureus E 710 (MRSA); 12.50 mg/kg × 3, s.c.): 3/11 | percentage rate of cure (S. aureus E 710 (MRSA); 12.50 mg/kg × 3, s.c.): 27% | Number of mice treated/cured (S. aureus E 710 (MRSA); 25.00 mg/kg × 3, s.c.): 14/21 | percentage rate of cure (S. aureus E 710 (MRSA); 25.00 mg/kg × 3, s.c.): 67% | Number of mice treated/cured (S. aureus E 710 (MRSA); 37.00 mg/kg × 3, s.c.): 6/6 | percentage rate of cure (S. aureus E 710 (MRSA); 37.00 mg/kg × 3, s.c.): 100% | Approx. ED50 (S. aureus E 710 (MRSA); s.c.): ~18.94 mg/kg × 3 | Approx. ED90 (S. aureus E 710 (MRSA); s.c.): ~32.01 mg/kg × 3 | reduces bacterial counts by (S. aureus SG 511 [2]): 0.79 log10 CFU/ml | Number of mice treated/cured (S. aureus SG 511 [3]; 3.12 mg/kg × 3, s.c.): 2/41 | percentage rate of cure (S. aureus SG 511 [3]; 3.12 mg/kg × 3, s.c.): 5% | Number of mice treated/cured (S. aureus SG 511 [3]; 6.25 mg/kg × 3, s.c.): 13/44 | percentage rate of cure (S. aureus SG 511 [3]; 6.25 mg/kg × 3, s.c.): 29% | Number of mice treated/cured (S. aureus SG 511 [3]; 12.5 mg/kg × 3, s.c.): 59/61 | percentage rate of cure (S. aureus SG 511 [3]; 12.5 mg/kg × 3, s.c.): 97% | Number of mice treated/cured (S. aureus SG 511 [3]; 18.75 mg/kg × 3, s.c.): 71/71 | percentage rate of cure (S. aureus SG 511 [3]; 18.75 mg/kg × 3, s.c.): 100%
